From PMC5339874, “Fluorene-9-bisphenol is anti-oestrogenic and may cause adverse pregnancy outcomes in mice” (Nature Communications, 2017)
Like-named read-outs stand apart in the source and are kept apart here.

Experiments:
[1] = test system: MCF-7 human breast cancer cells; design: method as in earlier work; conditions: granted patent CN102727470; cited from earlier work
[2] = target: T1, human oestrogen receptor β (Homo sapiens, UniProt Q92731); assay: Dual-luciferase reporter assay, full-length ERβ and ERE in JEG-3 cells; type: cell-based
T1 construct: expressed in transfected cells; host or cells: JEG-3 human choriocarcinoma cells
Procedure: Dual-luciferase reporter assays were carried out primarily according to the method described in a previous study. In short, full-length sequences of human oestrogen receptor α and β were amplified by RT-PCR using mRNA from MCF-7 (Supplementary Table 3), and inserted into a pSVSPORT1 (Invitrogen); the resulting constructs were termed pSVhERα and pSVhERβ. A reporter plasmid containing ERE was constructed by inserting four tandem repeats of an ERE of Xenopus laevis vitellogenin A2 into a pGL4.23 vector (Promega), and was termed pGL4-ERE-luc. […] The Renilla LUC control reporter construct pGL4.74-TK was purchased from Promega (Madison, WI). Human choriocarcinoma JEG-3 cells (ATCC No. HTB-36) were obtained from the American Type Culture Collection (ATCC; Manassas, VA) and were cultured in minimal essential medium (MEM, Invitrogen, Carlsbad, CA) containing 2 mM L-glutamine, 0.1 mM minimal essential medium nonessential amino acid solution (Invitrogen/Thermo Fisher Scientific, Grand Island, NY), and 10% fetal calf serum (FCS) at 37 °C in a humidified atmosphere containing 5% CO2. The cells (3 × 10^4 cells per well) were seeded in 24-well plates 24 h before transfection. The cells were transfected with pGL4-ERE-luc (5 ng per well), pGL 4.74-TK (0.2 ng per well) and either pSVhERα (5 ng per well) or pSVhERβ (5 ng per well) using Lipofectamine reagent (Invitrogen). At 24 h after transfection, the compounds in DMSO were added to the cultures at a volume ratio (v/v) of 0.1%. The cells were continuously cultured in medium supplemented with 1% charcoal-stripped FCS for another 24 h and then harvested, and cell extracts were assayed for firefly luciferase activity. The assays were performed in quadruplicate, and the results were expressed as the fold induction of the control after normalization against Renilla luciferase activity. Sigmoidal dose-effect curves were calculated using the GraphPad Prism 4 software. The IC50 values were calculated on the basis of the sigmoidal dose-effect curves. […]

[3] = target: T2, human oestrogen receptor α (Homo sapiens, UniProt P03372); assay: Dual-luciferase reporter assay, full-length ERα and ERE in JEG-3 cells; type: cell-based
T2 construct: expressed in transfected cells; host or cells: JEG-3 human choriocarcinoma cells
T2 sequence (P03372 1-595): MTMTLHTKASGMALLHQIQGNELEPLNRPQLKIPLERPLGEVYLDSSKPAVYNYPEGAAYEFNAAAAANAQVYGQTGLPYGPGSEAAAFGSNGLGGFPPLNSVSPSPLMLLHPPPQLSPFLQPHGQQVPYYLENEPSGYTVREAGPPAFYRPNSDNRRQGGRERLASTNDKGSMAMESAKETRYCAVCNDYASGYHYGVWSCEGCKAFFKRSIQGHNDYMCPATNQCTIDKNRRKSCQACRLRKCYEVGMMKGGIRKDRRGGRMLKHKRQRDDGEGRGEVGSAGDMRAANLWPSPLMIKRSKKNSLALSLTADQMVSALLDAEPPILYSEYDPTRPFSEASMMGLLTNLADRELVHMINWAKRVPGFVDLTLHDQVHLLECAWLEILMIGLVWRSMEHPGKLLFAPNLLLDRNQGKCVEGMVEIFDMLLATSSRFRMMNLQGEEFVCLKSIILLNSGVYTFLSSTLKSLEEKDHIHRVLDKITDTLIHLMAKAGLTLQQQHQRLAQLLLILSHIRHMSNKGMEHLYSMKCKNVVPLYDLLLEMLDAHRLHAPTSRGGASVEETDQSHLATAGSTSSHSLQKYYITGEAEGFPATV
Procedure: Dual-luciferase reporter assays were carried out primarily according to the method described in a previous study. In short, full-length sequences of human oestrogen receptor α and β were amplified by RT-PCR using mRNA from MCF-7 (Supplementary Table 3), and inserted into a pSVSPORT1 (Invitrogen); the resulting constructs were termed pSVhERα and pSVhERβ. A reporter plasmid containing ERE was constructed by inserting four tandem repeats of an ERE of Xenopus laevis vitellogenin A2 into a pGL4.23 vector (Promega), and was termed pGL4-ERE-luc. […] The Renilla LUC control reporter construct pGL4.74-TK was purchased from Promega (Madison, WI). […] The assays were performed in quadruplicate, and the results were expressed as the fold induction of the control after normalization against Renilla luciferase activity. Sigmoidal dose-effect curves were calculated using the GraphPad Prism 4 software. The IC50 values were calculated on the basis of the sigmoidal dose-effect curves. […]

[4] = coexisted with 1 × 10^−9 M E2, read-out: IC50, anti-oestrogenic activity
[5] = vs 1 nM E2, read-out: IC50 converted to mass concentration (converted)

T1 sequence (Q92731 whole entry): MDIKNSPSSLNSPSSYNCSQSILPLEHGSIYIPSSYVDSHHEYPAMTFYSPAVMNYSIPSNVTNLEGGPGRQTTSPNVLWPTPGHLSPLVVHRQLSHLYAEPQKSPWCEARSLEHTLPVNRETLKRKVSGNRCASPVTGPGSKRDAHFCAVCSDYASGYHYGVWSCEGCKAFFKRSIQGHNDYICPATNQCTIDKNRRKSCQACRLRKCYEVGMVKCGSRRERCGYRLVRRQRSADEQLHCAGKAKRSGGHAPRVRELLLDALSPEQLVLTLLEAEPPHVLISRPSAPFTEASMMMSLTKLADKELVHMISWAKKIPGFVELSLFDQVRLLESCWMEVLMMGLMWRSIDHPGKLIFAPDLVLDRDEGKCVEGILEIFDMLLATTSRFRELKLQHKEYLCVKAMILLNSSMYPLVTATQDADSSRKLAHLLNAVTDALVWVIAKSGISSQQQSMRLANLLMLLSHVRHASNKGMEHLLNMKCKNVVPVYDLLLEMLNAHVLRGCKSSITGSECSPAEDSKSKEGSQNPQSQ

Oc1ccc(C2(c3ccc(O)cc3)c3ccccc3-c3ccccc32)cc1 [BHPF, 9,9-bis(4-hydroxyphenyl)-fluorene]
proliferation of MCF-7 human breast cancer cells [1]: inhibited the proliferation
IC50 [2, 4]: 75.3 nM
oestrogenic activity ([2]; compound alone): no oestrogenic activity
IC50 [2, 5]: 75.3 nM
IC50 [3, 4]: 109 nM
IC50 [3, 5]: 109 nM
